# Experiments:
# Type in all cases: cell-based, human
# [1] = test system: MDA-MB-231 breast cancer cell line; test: MTT cytotoxicity assay; conditions: 48 h treatment
# Protocol: (§1) These cancer cell lines comprised prostate cancer (PC-3, DU-145, LNCaP), melanoma (SK-MEL28, A375, G-361), breast cancer (MCF-7, MDA-MB-231), and lung cancer (NCI-H1563). The MTT assay was carried out across a wide range of concentrations for 48 h.
# (§2) The research was conducted on one primary cell line: BJ (fibroblast) and four types of cancerous ones: three prostate cancer cell lines (PC-3, DU-145, LNCaP); 3 Melanoma cell lines (MEL-28, A375, G-361); 2 breast cancer cell lines (MCF-7, MDA-MB-23) and one lung cancer cell line (NCI-H1563). All cell lines were obtained from the American Type Culture Collection (ATCC, Manassas, VA, USA) and were grown in media (Corning, New York, NY, USA) according to ATCC guidelines. The culture media was enriched with 10% heat-inactivated fetal bovine serum (Life Technologies, Carlsbad, CA, USA) and antibiotics: penicillin (100 units) and streptomycin (100 μg/mL) from Sigma-Aldrich (St. Louis, MO, USA). The cells were incubated at 37 °C with 5% CO2 in air.
# (§3) The cytotoxic analysis of thiosemicarbazides (TSC) (AB1–AB6) and semicarbazides (SC) (AB7–AB12) was conducted in various concentrations. […] The cells were treated with compounds or DMSO as a vehicle in control cultures for 48h. IC50 values were determined using the AAT Bioquest IC50 calculator (AAT Bioquest, Inc., Pleasanton, CA, USA, Quest Graph™ EC50 Calculator. https://www.aatbio.com/tools/ec50-calculator) (accessed on 7 October 2024).
# (§4) The cytotoxic activity of the thiosemicarbazides and semicarbazides was measured using the MTT colorimetric assay (MTT Cell Proliferation Assay Kit—Invitrogen, Waltham, MA, USA). The cells were seeded in the 96-well plates at a density of 1.5 × 10^5 cells/mL. After reaching 70–80% of confluence, the tested compounds in a wide range of concentrations were added. Plates were incubated for 48 h at 37 °C in 5% CO2 air. Then, […] tetrazolium salt (3-(4,5-dimethylthiazol-2-yl)-2,5-diphenyltetrazolium bromide)—MTT reagent (0.5 mg/mL) dissolved in PBS was added to each well for 4 h. The MTT solution was then removed from above the water-insoluble purple formazan crystals, which were then dissolved in DMSO (dimethyl sulfoxide, […]; POCH, Gliwice, Poland). The absorbance value of obtained solutions was measured using a PowerWave ™ microplate spectrophotometer (Bio-Tek Instruments, Winooski, VT, USA) at a wavelength of 570 nm. Each cytotoxicity assay was repeated three times in triplicates.
# [2] = test system: PC-3 prostate cancer cell line; test: MTT cytotoxicity assay; conditions: 48 h treatment
# Protocol: as §1, §2, §3, §4
# [3] = test system: A375 melanoma cell line; test: MTT cytotoxicity assay; conditions: 48 h treatment
# Protocol: as §1, §2, §3, §4
# [4] = test system: LNCaP prostate cancer cell line; test: MTT cytotoxicity assay
# Protocol: as §1, §2, §3, §4
# [5] = test system: G-361 melanoma cell line; test: MTT cytotoxicity assay
# Protocol: as §1, §2, §3, §4
# [6] = test system: DU-145 prostate cancer cell line; test: MTT cytotoxicity assay; conditions: 48 h treatment
# Protocol: as §1, §2, §3, §4
# [7] = test system: MCF-7 breast cancer cell line; test: MTT cytotoxicity assay; conditions: 48 h treatment
# Protocol: as §1, §2, §3, §4
# [8] = test system: NCI-H1563 lung cancer cell line; test: MTT cytotoxicity assay; conditions: 48 h treatment
# Protocol: as §1, §2, §3, §4
# [9] = test system: SK-MEL28 melanoma cell line; test: MTT cytotoxicity assay; conditions: 48 h treatment
# Protocol: as §1, §2, §3, §4
# [10] = test system: LNCaP prostate cancer cells; test: Apoptosis detection, annexin V and propidium iodide; conditions: 48 h, concentration approximate to IC50
# Protocol: (§5) To further evaluate the anticancer activity of thiosemicarbazide derivative AB2 in G-361 and LNCaP cell lines, cell cycle analysis by image cytometry and detection of apoptosis using annexin V and propidium iodide was performed. Analyses of the action of AB2 on the distribution of cells in different phases of the cell cycle indicated a significant increase in the population of cells in the sub-G1 phase compared to the control cultures, in both tested prostate and melanoma cells. This population increased from 7% and 5% in control cells to 26% and 27% after exposure to AB2 in LNCaP and G-361 cells, respectively (Figure 8A). The increase in the cell population in the sub-G1 phase indicates the presence of apoptosis or necrosis in the investigated cells and not a significant inhibition of cell proliferation, i.e., a cytostatic effect.
# (§6) In prostate cancer cells, the percentage of early apoptotic cells substantially elevated after AB2 treatment compared with the control group, indicating the initial activation of the apoptotic pathway. […] The percentage of cells in the early phase of apoptosis is approximately 36% and 28% in LNCaP and G-361 cells, respectively (Figure 8B). At the same time, the population of cells in late apoptosis increased in both cell lines, implying a progression of the apoptotic process after AB2 exposure. […]
# [11] = test system: G-361 melanoma cells; test: as above; conditions: G-361, 48 h, concentration approximate to IC50
# Protocol: as §5, §6
# [12] = test system: LNCaP prostate cancer cells; test: Cell cycle analysis by image cytometry (NucleoCounter NC-3000); conditions: 48 h, AB2 at concentration corresponding to IC50
# Protocol: as §5
# (§7) Cell cycle analysis was assessed with the NucleoCounter NC-3000 (ChemoMetec, Allerod, Denmark) following the 2-Step Cell Cycle Assay protocol recommended by the manufacturer. The research was performed after 48 h incubation of prostate cancer cells (LNCaP) and melanoma cells (G-361) with AB2 compound in a concentration corresponding to IC50 value. Analysis was performed in line with the previously described methodology.
# [13] = test system: G-361 melanoma cells; test: as above; conditions: G-361, 48 h, AB2 at concentration corresponding to IC50
# Protocol: as §5, §7
# [14] = test system: BJ fibroblasts; test: MTT cytotoxicity assay, normal cells; conditions: 48 h treatment, read-out: IC50 BJ (fibroblast)
# Protocol: as §1, §2, §3, §4
compound,measurement,setting,value
O=C(COc1ccc(F)cc1)NNC(=S)Nc1ccccc1Cl [AB2],IC50,[1],> 500 µM
same,IC50,[2],> 500 µM
same,IC50,[3],429 µM
same,"selectivity index (SI), LNCaP",[4]; IC50 normal cells (BJ) divided by IC50 LNCaP,4.19
same,IC50,"[4]; MTT, 48 h treatment",108 µM
same,"selectivity index (SI), G-361",[5]; IC50 normal cells (BJ) divided by IC50 G-361,2.04
same,IC50,"[5]; MTT, 48 h treatment",223 µM
same,IC50,[6],> 500 µM
same,IC50,[7],> 500 µM
same,IC50,[8],> 500 µM
same,IC50,[9],470 µM
same,late apoptotic cells (Q1ur),[10],37%
same,early apoptotic cells (Q1lr),[11],~28%
same,cells in sub-G1 phase (M1),[12],26%
same,cells in sub-G1 phase (M1),[13],27%
same,IC50,[14],453 µM
